From patent publication US20140357688A1, “METHOD FOR INHIBITING EZH2 EXPRESSION IN BREAST CANCER CELLS” (Yung Shin Pharm. Ind. Co., Ltd., priority 2013, published 2014)

Legend:
MDA-MB-468 cells [1] = test: Morphological analysis of apoptosis by fluorescent staining (FDA/PI); format: cell-based, human; conditions: 3 μM YC-1, after 6 h-treatment
Description: (§1) (A) Cells were treated with indicated concentration of YC-1 for 6, 24, and 48 h. Cell viability was determined by MTT method. (B) MDA-MB-468 cells were treated with 3 μM YC-1 for 0, 6, and 12 h, and then stained with fluorescence diacetate (FDA) and propidium iodide (PI). Cell morphology was assessed by fluorescence microscopy with magnification ×20 (upper 3 rows) or ×40 (lowest row). (C) MDA-MB-468 cells were treated with 3 μM YC-1 for 24 h, cells were lysed and subjected to western blot analysis described in Materials and Methods. β-actin is a loading control. Blots were representative of results from three independent experiments. (D) Cells were treated with vehicle (DMSO, as control) or 3 μM YC-1 for 6 h. The cell cycles were analyzed by flow cytometry. (E) Cells were treated with indicated concentration of YC-1 and then performed with clonogenic assay.
Vital and apoptotic cells were observed under staining with fluorescein diacetate (2 mg/ml) and propidium iodide (4 mg/ml) for 10 min. Cells were visualized and recorded on a LeicaDC300 microscope with digital camera.

[2] = test system: caspase-8, -9, and -3 and PARP; test: Western blot of caspases and PARP cleavage; format: cell-based, human
Description: as §1, with “(E) Cells were treated with indicated concentration of YC-1 and then performed with clonogenic assay.” left out
(A)(B) Cells were treated with indicated concentration of YC-1 for 24 h (A) or 3 μM of YC-1 for indicated time (B). […] The levels of protein expression were quantitated and shown under blots. […] (D)(E) After 4 days of EZH2 knockdown, cells were incubated with 3 μM YC-1 for 4 h and detected cell viability (D) and protein contents (E). […]
Cells were lysed in PBS containing proteinase inhibitor and phosphatase inhibitors and sonication. Protein concentration was measured using the Bio-Rad protein assay kit (Bio-Rad Laboratories, Hercules, Calif., USA). […] The band intensities were analyzed and quantified by the Multi Gauge software (Fuji Photo Film).

MDA-MB-468 cells [3] = test: Cell cycle analysis by flow cytometry; format: cell-based, human; conditions: 3 μM YC-1, 6 h post-treatment
Description: as §1
Cells (1×10^6) treated with YC-1 were fixed in cold 70% ethanol overnight. Cells were stained with staining solution (0.5% Triton X-100, 2 mg/ml propidium iodide, 1 mg/ml RNase A in 1×PBS), followed by analysis on a FACSCalibur flow cytometer (BD Biosciences, Mountain View, Calif., USA).

MDA-MB-468 xenograft = test: MDA-MB-468 breast cancer xenograft animal model; format: in vivo, Nu/Nu mice
Description: MDA-MB-468 cells were used to inoculate Nu/Nu mice. (A, left) Tumor bearing mice were given vehicle (10 μl DMSO, CTL) or YC-1 (30 and 60 mg/kg/day) by ip treatment. (B, right) Tumor bearing mice were given vehicle (normal saline, CTL) or YC-1-succinate (YC-1-S; 20, 40, and 80 mg/kg/day) by oral administration. During treatment period, tumor volume and body weights of mice were measured once per 3 days. Data are expressed as mean of tumor volume (mm^3)±S.E.M. from 6 mice (YC-1 treatment) or 10 mice (YC-1-S treatment). Tumor weights (B) and body weights of mice (C) in control and YC-1/YC-1-S-treated groups were recorded.
Nu/Nu female mice (four weeks old) were from National Laboratory Animal Center, Taipei, Taiwan. Mice were maintained under procedures and guidelines from the Institutional Animal Care and Use of the National Health Research Institutes. MDA-MB-468 breast cancer cells (5×10^6 cells per mouse) were suspended in 0.1 ml of Matrigel solution (50%, v/v, Matrigel in 1×PBS) and inoculated into the mammary fat pads of nude mice. When the tumor masses reached to 100 mm^3, the tumor bearing mice were randomly divided into different groups for different dosage of YC-1 treatments. The mice were given by intraperitoneal injection with YC-1 or oral administration of YC-1-succinate. Tumor size and body weights of mice were measured once per 3 days and tumor volume (mm^3) was calculated as the equation: length×[…]. At the end of experiments, mice were sacrificed and tumor nodules were dissected and weighted. Tumor tissues were subjected to western blot analysis.

EGFR = test: Western blot of EGFR phosphorylation and expression; format: cell-based, human
Description: Cells were incubated with 3 μM YC-1 for indicated time. Cells were harvested and subjected to western blot analysis for the detection of protein expression. Cells were lysed in PBS containing proteinase inhibitor and phosphatase inhibitors and sonication. Protein concentration was measured using the Bio-Rad protein assay kit (Bio-Rad Laboratories, Hercules, Calif., USA). Lysate protein was separated by electrophoresis of SDS-PAGE and transferred to Immobilon P membrane (EMD Millipore). The membranes were incubated with appropriate primary antibodies and horseradish peroxidase-conjugated secondary antibodies (EMD Millipore). The signaling was visualized using Chemiluminescence substrate kit (EMD Millipore) and collected by the Luminesence image analyzer, LAS4000 (Fuji Photo Film Co., Tokyo, Japan). The band intensities were analyzed and quantified by the Multi Gauge software (Fuji Photo Film).

OCc1ccc(-c2nn(Cc3ccccc3)c3ccccc23)o1 [YC-1, 3-(5′-hydroxymethyl-2′-furyl)-1-benzyl indazole]
morphological changes (apoptosis) (MDA-MB-468 cells [1]): obviously morphological changes with apoptotic characteristics | earliest effects of caspase-3 activation detected ([2]; 3 μM YC-1): 4 h | cleavage of caspases and PARP ([2]; 3 μM YC-1, 24 h): clearly caused the cleavage of caspases and PARP | sub-G1 population (MDA-MB-468 cells [3]; control 5.9%): 13.5% | percentage of cells at the G1 phase (MDA-MB-468 cells [3]; control 57.2%): 64.8% | tumor growth (MDA-MB-468 xenograft; 30 and 60 mg/kg by intraperitoneal injection): significantly inhibited the tumor growth | body weights of mice (MDA-MB-468 xenograft; 30 and 60 mg/kg/day ip): not affected | tumor weight (MDA-MB-468 xenograft; 30 and 60 mg/kg/day ip): dose-dependently reduced tumor weight | EGFR phosphorylation (EGFR; 3 μM YC-1): rapidly induced EGFR phosphorylation | EGFR protein expression (EGFR; 3 μM YC-1, after 6 h treatment): significant decrease
